According to the NIST ThermoML archive (doi:10.1021/je100028s):
± gives the expanded uncertainty stated by the source.

Conditions: Liquid; for mass density: 293.1 K, 101.33 kPa, Pycnometric method; for vapor or sublimation pressure: Closed cell (Static) method

| mass density [kg/m3] | vapor or sublimation pressure (414 K) [kPa] | vapor or sublimation pressure (423.4 K) [kPa] | vapor or sublimation pressure (433.7 K) [kPa] | SMILES |
| --- | --- | --- | --- | --- |
| 778.2 ± 0.7 | 457.67 ± 21 | 555.25 ± 21 | 677.81 ± 21 | C1CCCCC1 [cyclohexane] |
| 941.4 ± 0.9 | – | – | – | OC1CCCCC1 [cyclohexanol] |
| 947.6 ± 0.9 | – | – | – | O=C1CCCCC1 [cyclohexanone] |
